According to US12193465B2, “Materials and methods for extending shelf-life of foods” (JP Laboratories, Inc., priority 2021, dated 2025):

Key:
[1] = Curdling / cream / solidification of milk; details: for Curdling of milk: pasteurized whole and fat-free milk;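 as to Curdling of milk: compared with untreated control milk in closed containers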;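 as to Curdling: compared with untreated control milk in closed containers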
Description: (§1) Most of the foods changed color or texture.

[2] = General shelf-life extension of foods (spoilage criteria of Example 9); details: for Effectiveness for controlling one or more spoilage criteria: variety of foods
Protocol: All studies were conducted at a room temperature of about 25° C. To determine the effectiveness of a shelf-life extender, a control sample which was untreated with any shelf-life extenders, was tested identical to the test samples. […] All studies in those Examples of Tables 1-6 were conducted in closed plastic or glass containers. Containers, such as plastic containers, without or with lids having holes can be used if it is advantageous to let excess moisture escape or to prevent condensation of moisture released by some produce.
Food exposed to preservatives or by a sachet was placed in typically polystyrene or acrylic containers depending upon the size and number of food items. Glass jars and bottles were also used. The containers were snap-closed or with a lid. The containers were purchased mainly from Amazon or Webstaurant.com store. When needed, plastic containers with holes or without lids were used.
For controlled exposure and a constant supply of a preservative to foods, sachets containing one or more drops of preservatives were used. Sachets were made by placing an appropriate amount of a preservative in a plastic bag containing a piece of paper and heat sealing the bag. The sachet bag materials used were Tyvek® for solid preservative, polyethylene, polyester and high barrier multilayer films were used for liquid preservatives. These bags were sealed with a heat sealer. The sachet was typically applied on one side of the container containing food.
A piece of paper napkin was taped inside a 100 microns thick polyethylene or polyester Ziploc bag. The size of the bag varied from ˜20 cm×30 cm to ˜60 cm×90 cm depended on the sample with sandwich bags up to gallon bags being exemplary. The paper napkin was wetted with 0.1-0.5 ml of a preservative or a mixture of preservatives. A tray of aluminum, stainless steel or glass containing the foods was placed inside the plastic (polyethylene, polyester and multilayer-laminated) bag and almost closed by locking the Ziploc. Air was blown with an air blower from the unclosed end until the bag was fully blown and then quickly closed tightly by locking the remaining Ziploc. If a preservative was a sublimable solid, it was placed in a petri dish and then placed inside the bag in the tray before blowing air. The exposure time was varied from five minutes to a day depending upon the food. […] The assembly was shaken periodically. After the predetermined time, the tray containing produce was removed from the bag, allowed to de-gas for 10-30 minutes in air and the produce was then placed in an appropriately sized container. Glass and stainless steel containers with lids were also often used.
A solution of one or more preservatives was prepared in a large (e.g., 2-10 liter) glass beaker or a jar. A sack containing the food was prepared by placing the food in a plastic mesh bag. The sack was placed in the solution of the preservative. A smaller glass beaker containing proper amount of water was place over the package to keep the sack soaked in the solution of the preservative during the treatment. The solution was stirred either with a plastic spatula or with a magnet over a magnetic stirrer. After treatment, the mesh sack was removed, the produce was washed in a tray with running water, strained and air dried at 30° C. in an air blowing oven for about 5-10 minutes, while shaking the tray or turning the food periodically followed by placing the sample in an appropriate container.
The food was placed in mesh trays and sprayed with an aqueous solution (1-10%) of a preservative while shaking the tray or turning the food. The solution was allowed to drain from the tray and the food was air dried in an air blowing oven at 30° C. for about 5-10 minutes, while shaking the tray or turning food periodically followed by placing the sample in an appropriate container.

fungus = assay: Fungus growth on treated foods stored in closed containers at room temperature; details: for Spoilage Time - Sample: Fungus;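 as to Effectiveness on ginger: compared with untreated control ginger in closed containers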
Description: as §1
Glass jars and bottles were also used. The containers were snap-closed or with a lid.
(§2) These bags were sealed with a heat sealer.
(§3) The assembly was shaken periodically.

[3] = tested on: grains, legumes, potatoes, garlic; assay: Germination / sprouting of grains, legumes and tubers; details: potatoes
Description: as §2, §3

Structure (SMILES): Cc1ccccc1B(O)O [2-methylphenylboronic acid]
- Curdling of milk [1]: delayed curdling

Structure (SMILES): O=c1ccc2ccccc2o1 [coumarin]
- Effectiveness for controlling one or more spoilage criteria [2]: effective to a greater or lesser extent

Structure (SMILES): CC1CCCCC1=O (centres unmarked) [2MC, 2-Methylcyclohexanone]
- Fungus growth (fungus; strawberries, raspberries, blackberries and lychee): either prevented or significantly delayed
- Shelf-life of flowery vegetables [2]: extended shelf-life
- Effectiveness for controlling one or more spoilage criteria [2]: effective to a greater or lesser extent

Structure (SMILES): S [hydrogen sulfide, Hydrogen sulfide]
- Fungus growth (fungus; Example 159, snow peas, Himalayan salt sachet, control 6 days): > 11 days
- Spoilage Time - Sample (Fungus) (fungus; Snow peas, Sachet, control 6 days (Example 159)): 11 days
- Spoilage Time - Sample (Fungus) (fungus; Snow peas, Sachet, control 11 days (Example 160)): 15 days

Structure (SMILES): COc1ccccc1B(O)O [2-methoxyphenylboronic acid]
- Effectiveness in extending freshness of cold press fresh juices (fungus): effective
- Curdling ([1]; raw cow milk and raw goat milk): delayed curdling

Structure (SMILES): CC1CCC(=O)CC1 [4-methylcyclohexanone]
- Shelf-life of flowery vegetables [2]: extended shelf-life
- Effectiveness for controlling one or more spoilage criteria [2]: effective to a greater or lesser extent

Structure (SMILES): S=C=Nc1ccccc1 [PI, phenyl isothiocyanate]
- Spoilage Time - Sample (fungus; Example 87, White pearl onions, Sachet, 100% relative humidity, control 8 days): 48 days
- Spoilage Time - Sample (fungus; Example 88, Yellow pearl onions, Sachet, 100% relative humidity, control 24 days): 48 days
- Effectiveness in extending freshness of cold press fresh juices (fungus): effective
- Curdling ([1]; raw cow milk and raw goat milk): delayed curdling
- Effectiveness at extending the shelf-life of potatoes [3]: effective

Structure (SMILES): OB(O)c1ccc(Br)cc1 [4-bromophenylboronic acid, 4-Bromophenylboronic acid]
- Fungus growth (fungus; Example 134, raw milk yogurt, preservative added, control 3 days): > 5 days
- Spoilage Time - Sample (Fungus) (fungus; Raw milk yogurt, 0.10 g, control 3 days): 5 days
- Effectiveness in extending freshness of cold press fresh juices (fungus): effective
- Curdling of milk [1]: delayed curdling
- Curdling ([1]; raw cow milk and raw goat milk): delayed curdling

Structure (SMILES): N.NC(=O)O [ACB, Ammonium carbaminate]
- Spoilage Time - Sample (Fungus) (fungus; Fresh, unshelled peanuts, Sachet, control 5 days): 45 days

Structure (SMILES): S=C=NCc1ccccc1 [benzyl isothiocyanate]
- Curdling ([1]; raw cow milk and raw goat milk): delayed curdling

Structure (SMILES): CC(C)(C)c1ccc(B(O)O)cc1 [4-tert-butylphenylboronic acid, 4-tert-Butylphenylboronic acid]
- Shelf-life of tomato juice (fungus; Example 133, fresh cold pressed tomato juice): improve shelf-life
- Spoilage Time - Sample (Fungus) (fungus; Tomato juice, 0.20 g, control 4 days): 27 days
- Shelf-life of raw milk yogurt (fungus; raw milk yogurt): extended shelf-life
- Curdling of milk [1]: delayed curdling
- Curdling ([1]; raw cow milk and raw goat milk): delayed curdling

Structure (SMILES): CCCCB(O)O [butylboronic acid]
- Effectiveness in extending freshness of cold press fresh juices (fungus): effective
- Shelf-life of raw milk yogurt (fungus; raw milk yogurt): extended shelf-life
- Curdling of milk [1]: delayed curdling
- Curdling ([1]; raw cow milk and raw goat milk): delayed curdling

Structure (SMILES): CC(=O)CC(C)(C)O [4-hydroxy-4-methyl-2-pentanone]
- Effectiveness for controlling one or more spoilage criteria [2]: effective to a greater or lesser extent

Structure (SMILES): OB(O)c1cccc(Cl)c1 [3-chlorophenylboronic acid, 3-Chlorophenylboronic acid]
- Effectiveness in extending freshness of cold press fresh juices (fungus): effective
- Shelf-life of raw milk yogurt (fungus; raw milk yogurt): extended shelf-life
- Curdling ([1]; Example 135, fat-free milk): either prevented or significantly delayed
- Spoilage Time - Sample (Solid) ([1]; Pasteurized fat free milk, 0.05 g, control 3 days): 14 days
- Curdling of milk [1]: delayed curdling
- Curdling ([1]; raw cow milk and raw goat milk): delayed curdling

Structure (SMILES): CCN=C=S [EI, ethyl isothiocyanate]
- Spoilage Time - Sample (fungus; Example 85, Tomato juice, 0.02 g, control 4 days): 27 days
- Spoilage Time - Sample (fungus; Example 85, Tomato juice, 0.02 g, control 4 days, listed as Ethyl isothiocyanate): improve shelf-life
- Effectiveness on ginger (fungus; ginger, pre-exposure and sachet method): found effective
- Shelf-life of raw milk yogurt (fungus; raw milk yogurt): extended shelf-life
- Spoilage Time - Sample ([1]; Example 84, Cream, Raw cow milk, 0.07 g, control 3 days): 24 days
- Spoilage Time - Sample ([1]; Example 86, Solid, Pasteurized whole milk, 0.05 g, control 3 days): 14 days
- Spoilage Time - Sample ([1]; Example 86, Solid, Pasteurized whole milk, 0.05 g, control 3 days, listed as ethyl isothiocyanate): either prevented or significantly delayed
- Effectiveness at extending the shelf-life of potatoes [3]: effective

Structure (SMILES): Cc1cc(C)cc(B(O)O)c1 [3,5-dimethylphenylboronic acid]
- Effectiveness in extending freshness of cold press fresh juices (fungus): effective
- Curdling of milk [1]: delayed curdling
- Curdling ([1]; raw cow milk and raw goat milk): delayed curdling

Structure (SMILES): Cc1ccc(N=C=S)cc1 [p-tolyl isothiocyanate]
- Curdling ([1]; raw cow milk and raw goat milk): delayed curdling

Structure (SMILES): CC1=CCCC1 [MCP, 1-Methylcyclopentene]
- Shelf-life of flowery vegetables [2]: extended shelf-life
- Shelf-life of shelled and unshelled peanuts ([2]; peanuts): extended
- Effectiveness for controlling one or more spoilage criteria [2]: effective to a greater or lesser extent

Structure (SMILES): O=C1CCCC1 [CP, Cyclopentanone]
- Spoilage Time - Sample (fungus; Example 115, Strawberry, Sachet, control 2 days): 5 days
- Shelf-life of flowery vegetables [2]: extended shelf-life
- Effectiveness for controlling one or more spoilage criteria [2]: effective to a greater or lesser extent

Structure (SMILES): COc1cccc(B(O)O)c1 [3-methoxyphenylboronic acid, 3-Methoxyphenylboronic acid]
- Fungus growth (fungus; 96 h): > 27 days
- Spoilage Time - Sample (Fungus) (fungus; Orange juice with peel, 0.02 g, control 4 days): 27 days
- Curdling of milk [1]: delayed curdling
- Curdling ([1]; raw cow milk and raw goat milk): delayed curdling

Structure (SMILES): OB(O)c1ccc(-c2ccccc2)cc1 [4-biphenylboronic acid]
- Effectiveness in extending freshness of cold press fresh juices (fungus): effective
- Curdling of milk [1]: delayed curdling
- Curdling ([1]; raw cow milk and raw goat milk): delayed curdling

Structure (SMILES): c1ccc(COCc2ccccc2)cc1 [benzyl ether, Benzyl Ether]
- Fungus growth (fungus; Example 146, ginger, pre-exposed to vapor, control 12 days): > 37 days
- Spoilage Time - Sample (Fungus) (fungus; Ginger, 1 hr P-E, control 12 days): 37 days
- Effectiveness for controlling one or more spoilage criteria [2]: effective to a greater or lesser extent

Structure (SMILES): COC(=O)c1ccc(B(O)O)cc1 [4-(methoxycarbonyl)phenylboronic acid]
- Effectiveness in extending freshness of cold press fresh juices (fungus): effective
- Curdling of milk [1]: delayed curdling
- Curdling ([1]; raw cow milk and raw goat milk): delayed curdling

Structure (SMILES): Cc1ccc2cccc(O)c2n1 [2-methyl-8-quinolinol]
- Effectiveness for controlling one or more spoilage criteria [2]: effective to a greater or lesser extent

Structure (SMILES): COC(=O)C1CCCC1=O (centres unmarked) [methyl cyclopentanone-2-carboxylate]
- Effectiveness for controlling one or more spoilage criteria [2]: effective to a greater or lesser extent

Structure (SMILES): COC(=O)CC(=O)OC [dimethyl malonate]
- Effectiveness for controlling one or more spoilage criteria [2]: effective to a greater or lesser extent

Structure (SMILES): N.N.N.O=P(O)(O)O [ammonium phosphate]
- Effectiveness at extending the shelf-life of potatoes [3]: effective

Structure (SMILES): Oc1cccc(O)c1 [resorcinol]
- Effectiveness for controlling one or more spoilage criteria [2]: effective to a greater or lesser extent

Structure (SMILES): CCCCN=C=S [butyl isothiocyanate]
- Effectiveness in extending freshness of cold press fresh juices (fungus): effective
- Curdling ([1]; raw cow milk and raw goat milk): delayed curdling

Structure (SMILES): O=C1CCCCCC1 [CH, Cycloheptanone]
- Spoilage Time - Sample (fungus; Example 91, Blueberry, Sachet, control 5 days): 67 days
- Shelf-life of flowery vegetables [2]: extended shelf-life
- Effectiveness for controlling one or more spoilage criteria [2]: effective to a greater or lesser extent

Structure (SMILES): CC12CCC(CC1=O)C2(C)C (racemic) [(±)-camphor]
- Shelf-life of flowery vegetables [2]: extended shelf-life

Structure (SMILES): OB(O)O [boric acid]
- Curdling of milk [1]: delayed curdling
